Reference: patent publication US4990499A, “Anti-herpes simplex virus activity of 5-alkoxymethyl-2'-deoxycytidimes and their 5-monophosphates” (priority 1989, dated 1991)

What was measured:
[1] = tested on: Herpes simplex virus type 1 (HSV-1); assay: Antiviral activity against HSV-1, viral plaque reduction (ED50); format: cell-based; conditions: FIG. 13; deoxyguanosine with MMdCyd
Protocol: Infected cells were treated with different concentrations of MMdCyd and the concentration required to reduce viral plaque formation by 50%, i.e. ED50, was determined.
^a ED50 : Concentration required to reduce viral plaque formatio
Vero cells were infected with the KOS strain of HSV-1. The compound of compounds indicated in Table 2, below, and are shown graphically in FIGS. 1, (H4 dUrd) and 2 (H4 Urd).
^a Antiviral assays were carried out using Vero cells. All compounds
were added immediately after virus infection.
The antiviral activity of MMdCyd in the presence of H4 dUrd was determined against several strains of HSV-1 and HSV-2.
Vero cells were infected with HSV-1, strain 76 and treated with MMdCyd at different times post virus infection.
The antiviral activity, ^a cyctotoxicity* and antiviral indices of MMdCyd in the presence of H4 dUrd, dGuo and H4 dUrd+dGuo were determined.
^a Antiviral assays were carried out using Vero cells. Compounds were
added immediately after virus infection. Virus HSV1, strains KOS and 76;
KOS, virus input = 50 PFU

[2] = tested on: Deoxynucleoside Triphosphate (dNTP) Pools in Uninfected Vero Cells; assay: Deoxynucleoside triphosphate (dNTP) pools in uninfected (mock-infected) Vero cells; format: cell-based; conditions: Table 10, uninfected
Protocol: Vero cells were treated with MMdCyd, H4 dUrd and MMdCyd+H4 dUrd. The cells were then assayed for the presence of deoxynucleoside triphosphates. Untreated Vero cells were also assayed for the presence of deoxynucleoside triphosphates, to provide a control.
^a Cells were mock infected for one hour. Different treatments were
^b Values are means of at least two assays of triplicate cell
(§1) Vero cells and HSV-infected Vero cells were treated with dGUO and dGUO and H4 dUrd. The cells were then assayed for the presence of deoxynucleoside triphosphates. Untreated Vero cells were also assayed for the presence of deoxynucleoside triphophate to provide a control.
Vero cells were treated with N-methyl-MMdCyd. The cells were then assayed for dNTP pools.

[3] = tested on: Deoxynucleoside Triphosphate (dNTP) Pools in Vero Cells Infected with Herpes Simplex Virus Type 1; assay: Deoxynucleoside triphosphate (dNTP) pools in HSV-1 infected Vero cells; format: cell-based; conditions: Table 10, HSV-infected
Protocol: Example 9 was repeated, except that the Vero cells subjected to the treatment had all been infected with HSV-1 KOS strain prior to the treatment.
^a Cells were infected with 10 PFU/cell of HSV1 KOS strain for one
hour. Treatments were given for seven hours.
^a Cells were infected with 10 PFU/cell of HSV1, KOS strain after
^b H4 dUrd in MEM was added immediately after adsorption and
^c H4 dUrd in MEM was added immediately after adsorption and
as §1
^c Cells were infected with 10 PFU/cell of HSV1 strain KOS for one

[4] = tested on: Herpes simplex virus type 1 (HSV-1); assay: Antiviral activity against HSV-1, viral plaque reduction (ED50); format: cell-based; conditions: FIG. 13; HSV-1 KOS and 76, Vero, 20 PFU
[5] = Survival and viability of Vero cells; conditions: monkey, vero cells
Protocol: (§2) The survival and viability of Vero cells grown in the presence of 2'-deoxyguanosine, H4 dUrd and deoxyguanosine+H4 dUrd was determined.

Vero cells = assay: Survival and viability of Vero cells; conditions: up to 250 μM, rapidly dividing Vero cells
Protocol: as §2

## Nc1nc2c(ncn2[C@H]2C[C@H](O)[C@@H](CO)O2)c(=O)[nH]1 [dGuo, 2'-deoxyguanosine]
[1]
  concentration giving maximal increase in antiherpes activity of MMdCyd: 100 µM
[2]; dGUO 25 μM
  dATP pool: 18 .rho.moles/10^6 cells
  dCTP pool: 13 .rho.moles/10^6 cells
  dGTP pool: 42 .rho.moles/10^6 cells
  dTTP pool: 17 .rho.moles/10^6 cells
[2]; dGUO 50 μM
  dATP pool: 19 .rho.moles/10^6 cells
  dCTP pool: 9 .rho.moles/10^6 cells
  dGTP pool: 88 .rho.moles/10^6 cells
  dTTP pool: 10 .rho.moles/10^6 cells
[2]; dGUO 100 μM
  dATP pool: 19 .rho.moles/10^6 cells
  dCTP pool: 11 .rho.moles/10^6 cells
  dGTP pool: 76 .rho.moles/10^6 cells
  dTTP pool: 13 .rho.moles/10^6 cells
[2]; dGUO 250 μM
  dATP pool: 29 .rho.moles/10^6 cells
  dCTP pool: 8 .rho.moles/10^6 cells
  dGTP pool: 102 .rho.moles/10^6 cells
  dTTP pool: 13 .rho.moles/10^6 cells
[2]; dGUO 500 μM
  dATP pool: 19 .rho.moles/10^6 cells
  dCTP pool: 7 .rho.moles/10^6 cells
  dGTP pool: 146 .rho.moles/10^6 cells
  dTTP pool: 6 .rho.moles/10^6 cells
[3]; dGUO 25 μM
  dATP pool: 12 .rho.moles/10^6 cells
  dCTP pool: 23 .rho.moles/10^6 cells
  dGTP pool: 290 .rho.moles/10^6 cells
  dTTP pool: 110 .rho.moles/10^6 cells
[3]; dGUO 50 μM
  dATP pool: 12 .rho.moles/10^6 cells
  dCTP pool: 33 .rho.moles/10^6 cells
  dGTP pool: 373 .rho.moles/10^6 cells
  dTTP pool: 118 .rho.moles/10^6 cells
[3]; dGUO 100 μM
  dATP pool: 12 .rho.moles/10^6 cells
  dCTP pool: 64 .rho.moles/10^6 cells
  dGTP pool: 600 .rho.moles/10^6 cells
  dTTP pool: 214 .rho.moles/10^6 cells
[3]; dGUO 250 μM
  dATP pool: 14 .rho.moles/10^6 cells
  dCTP pool: 78 .rho.moles/10^6 cells
  dGTP pool: 558 .rho.moles/10^6 cells
  dTTP pool: 233 .rho.moles/10^6 cells
[3]; dGUO 500 μM
  dATP pool: 25 .rho.moles/10^6 cells
  dCTP pool: 60 .rho.moles/10^6 cells
  dGTP pool: 738 .rho.moles/10^6 cells
  dTTP pool: 247 .rho.moles/10^6 cells
[4]
  effect on antiviral activity of MMdCyd: markedly potentiated
[5]
  viability at 25 µM: 100%
  viability at 50 µM: 100%
  viability at 100 µM: 100%
  viability at 250 µM: 100%
  viability at 500 µM: 88%
  viability at 1000 µM: 63%
Vero cells
  cytotoxicity: devoid of cytotoxicity
